Data as given in BigSolDB 2.1.

Structure (SMILES): CCCCCCCCCCCC(=O)O
- solubility (mole fraction) (in 1-bromopropane, 280.6 K): 0.0756
- solubility (mole fraction) (in 1-bromopropane, 283.8 K): 0.0997
- solubility (mole fraction) (in 1-bromopropane, 287.8 K): 0.15
- solubility (mole fraction) (in 1-bromopropane, 289.9 K): 0.185
- solubility (mole fraction) (in 1-bromopropane, 293.1 K): 0.239
- solubility (mole fraction) (in 1-bromopropane, 295.2 K): 0.275
- solubility (mole fraction) (in 1-bromopropane, 298.8 K): 0.34
- solubility (mole fraction) (in 1-bromopropane, 301.4 K): 0.404
- solubility (mole fraction) (in 1-bromopropane, 304.3 K): 0.473
- solubility (mole fraction) (in 1-bromopropane, 305.3 K): 0.528
- solubility (mole fraction) (in 1-bromopropane, 307.3 K): 0.573
- solubility (mole fraction) (in 1-bromopropane, 309.3 K): 0.645
- solubility (mole fraction) (in 1-bromopropane, 310.5 K): 0.709
- solubility (mole fraction) (in 1-bromopropane, 312.5 K): 0.775
- solubility (mole fraction) (in 1-bromopropane, 313.8 K): 0.859
- solubility (mole fraction) (in acetone, 286.6 K): 0.0794
- solubility (mole fraction) (in acetone, 290.1 K): 0.107
- solubility (mole fraction) (in acetone, 293.1 K): 0.146
- solubility (mole fraction) (in acetone, 293.3 K): 0.146
- solubility (mole fraction) (in acetone, 298 K): 0.224
- solubility (mole fraction) (in acetone, 299.9 K): 0.283
- solubility (mole fraction) (in acetone, 301.9 K): 0.34
- solubility (mole fraction) (in acetone, 303.4 K): 0.389
- solubility (mole fraction) (in acetone, 305.1 K): 0.449
- solubility (mole fraction) (in acetone, 306.7 K): 0.512
- solubility (mole fraction) (in acetone, 308.1 K): 0.568
- solubility (mole fraction) (in acetone, 310.9 K): 0.678
- solubility (mole fraction) (in acetone, 312 K): 0.735
- solubility (mole fraction) (in acetone, 313 K): 0.795
- solubility (mole fraction) (in acetone, 314.4 K): 0.857
- solubility (mole fraction) (in acetone, 315.2 K): 0.895
- solubility (mole fraction) (in isopropanol, 279.2 K): 0.0797
- solubility (mole fraction) (in isopropanol, 282.7 K): 0.104
- solubility (mole fraction) (in isopropanol, 285.9 K): 0.13
- solubility (mole fraction) (in isopropanol, 289.1 K): 0.164
- solubility (mole fraction) (in isopropanol, 293.1 K): 0.22
- solubility (mole fraction) (in isopropanol, 297.1 K): 0.283
- solubility (mole fraction) (in isopropanol, 301 K): 0.361
- solubility (mole fraction) (in isopropanol, 303 K): 0.409
- solubility (mole fraction) (in isopropanol, 304.4 K): 0.458
- solubility (mole fraction) (in isopropanol, 306.1 K): 0.513
- solubility (mole fraction) (in isopropanol, 308.1 K): 0.568
- solubility (mole fraction) (in isopropanol, 309.8 K): 0.648
- solubility (mole fraction) (in isopropanol, 311.2 K): 0.712
- solubility (mole fraction) (in isopropanol, 312.6 K): 0.777
- solubility (mole fraction) (in isopropanol, 314.1 K): 0.842
- solubility (mole fraction) (in isopropanol, 314.9 K): 0.896
- solubility (mole fraction) (in n-hexane, 279.9 K): 0.0292
- solubility (mole fraction) (in n-hexane, 282.5 K): 0.0408
- solubility (mole fraction) (in n-hexane, 283.6 K): 0.0502
- solubility (mole fraction) (in n-hexane, 286.9 K): 0.0736
- solubility (mole fraction) (in n-hexane, 289.7 K): 0.108
- solubility (mole fraction) (in n-hexane, 291.7 K): 0.134
- solubility (mole fraction) (in n-hexane, 293.9 K): 0.171
- solubility (mole fraction) (in n-hexane, 296.4 K): 0.223
- solubility (mole fraction) (in n-hexane, 297.5 K): 0.252
- solubility (mole fraction) (in n-hexane, 300.1 K): 0.322
- solubility (mole fraction) (in n-hexane, 301.8 K): 0.38
- solubility (mole fraction) (in n-hexane, 303.8 K): 0.442
- solubility (mole fraction) (in n-hexane, 305.9 K): 0.519
- solubility (mole fraction) (in n-hexane, 308 K): 0.593
- solubility (mole fraction) (in n-hexane, 311 K): 0.711
- solubility (mole fraction) (in n-hexane, 312.5 K): 0.777
- solubility (mole fraction) (in n-hexane, 314.2 K): 0.858
- solubility (mole fraction) (in n-propanol, 287.1 K): 0.13
- solubility (mole fraction) (in n-propanol, 289.6 K): 0.153
- solubility (mole fraction) (in n-propanol, 292.8 K): 0.192
- solubility (mole fraction) (in n-propanol, 295.1 K): 0.225
- solubility (mole fraction) (in n-propanol, 297.9 K): 0.275
- solubility (mole fraction) (in n-propanol, 299.9 K): 0.318
- solubility (mole fraction) (in n-propanol, 301.5 K): 0.353
- solubility (mole fraction) (in n-propanol, 303.5 K): 0.406
- solubility (mole fraction) (in n-propanol, 304.7 K): 0.44
- solubility (mole fraction) (in n-propanol, 306.5 K): 0.509
- solubility (mole fraction) (in n-propanol, 307.4 K): 0.541
- solubility (mole fraction) (in n-propanol, 308.7 K): 0.597
- solubility (mole fraction) (in n-propanol, 309.9 K): 0.644
- solubility (mole fraction) (in n-propanol, 310.7 K): 0.69
- solubility (mole fraction) (in n-propanol, 312.1 K): 0.749
- solubility (mole fraction) (in n-propanol, 313.4 K): 0.818
- solubility (mole fraction) (in n-propanol, 314.2 K): 0.873
- solubility (mole fraction) (in trichloroethylene, 282 K): 0.144
- solubility (mole fraction) (in trichloroethylene, 283.1 K): 0.157
- solubility (mole fraction) (in trichloroethylene, 284.6 K): 0.171
- solubility (mole fraction) (in trichloroethylene, 288.4 K): 0.216
- solubility (mole fraction) (in trichloroethylene, 291 K): 0.258
- solubility (mole fraction) (in trichloroethylene, 293 K): 0.295
- solubility (mole fraction) (in trichloroethylene, 296 K): 0.337
- solubility (mole fraction) (in trichloroethylene, 298.2 K): 0.389
- solubility (mole fraction) (in trichloroethylene, 301.2 K): 0.441
- solubility (mole fraction) (in trichloroethylene, 303.3 K): 0.516
- solubility (mole fraction) (in trichloroethylene, 306.7 K): 0.591
- solubility (mole fraction) (in trichloroethylene, 308.6 K): 0.666
- solubility (mole fraction) (in trichloroethylene, 310.5 K): 0.725
- solubility (mole fraction) (in trichloroethylene, 312.5 K): 0.806
- solubility (mole fraction) (in trichloroethylene, 313.5 K): 0.855
